From patent US20230295234A1, “ANTIMICROBIAL PEPTIDOMIMETICS” (SPEXIS AG, priority 2020, published 2023)
Like-named read-outs stand apart in the source and are kept apart here. Bridge positions count the residues as written; N and C are the ends. Square brackets hold non-standard residues; d marks the D form. Peptide text beside a SMILES is read from it. * marks the point of attachment. Pro(4R-NH2) = N[C@H]1CN[C@H](C(=O)O)C1; Pen = CC(C)(S)[C@H](N)C(=O)O; dDab = NCC[C@@H](N)C(=O)O; Nle = CCCC[C@H](N)C(=O)O; Dab = NCC[C@H](N)C(=O)O; X3 = NCCN(CCN)CC(=O)*

Legend:
[1] = system: Klebsiella pneumoniae SSI3010; details: SSI3010
Method in brief: (§1)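 Two-fold serial dilutions of peptide, in water with polysorbate 80 (0.002% final), met bacteria adjusted to 0.5 McFarland then diluted to about 5×10^5 CFU/mL. Medium was cation-adjusted Mueller-Hinton II broth; peptide stocks were 1 mg/mL in sterile water.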

[2] = system: Escherichia coli MCR-1 Af 45
Method in brief: as §1

[3] = system: Escherichia coli ATCC 25922; details: ATCC 25922
Method in brief: as §1

[4] = system: human red blood cells (hRBC); assay: Hemolysis of human red blood cells; type: cell-based; details: red cells of human, 1 h
Method in brief: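 PBS-washed human red blood cells (20% v/v) were incubated with peptide at 200 μg/mL for 1 h at 37 °C with shaking. Supernatant OD was read at 540 nm after 8-fold dilution. Hemolysis is expressed as percent of the water control.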

[5] = Mueller-Hinton broth II, 18-20 hours at 35° C.

## CC[C@H](C)[C@H](NC(=O)[C@@H]1C[C@@H](O)CN1C(=O)[C@@H](NC(=N)N)C(C)C)C(=O)N[C@H](C(=O)N[C@@H](Cc1ccc(O)cc1)C(=O)N[C@@H]1C(=O)N[C@@H](CC(N)=O)C(=O)N[C@@H](CCCNC(=N)N)C(=O)N[C@@H](CCN)C(=O)N[C@@H](CO)C(=O)N[C@H](CCN)C(=O)N[C@@H](CCCCN)C(=O)N[C@H](C(=O)N[C@@H](CCN)C(=O)N[C@@H](CCCNC(=N)N)C(=O)N[C@@H](Cc2ccc(O)cc2)C(=O)O)CSSC1(C)C)[C@@H](C)O [Example 196] (HELM PEPTIDE1{[CC(C)[C@H](NC(=N)N)C(=O)[*:2]].[Hyp].I.T.Y.[Pen].N.R.[Dab].S.[NCC[C@@H](N[*:1])C(=O)[*:2]].K.C.[Dab].R.Y}$PEPTIDE1,PEPTIDE1,6:R3-13:R3$$$V2.0)
[1]
  Klebsiella pneumoniae SSI3010 MIC: 0.125 mg/L
[2]; [5]
  Escherichia coli MCR-1 Af 45 MIC: 0.0625 mg/L
[3]
  Escherichia coli ATCC 25922 MIC: 0.125 mg/L
[4]
  Hemolysis at 0.2 g/L: 0%

## CCCC[C@H](NC(=O)[C@H](CCCNC(=N)N)NC(=O)[C@H](CCN)NC(=O)[C@@H]1CSSC[C@H](NC(=O)[C@H](Cc2ccc(O)cc2)NC(=O)[C@@H](NC(=O)[C@@H](NC(=O)[C@@H]2CCCN2C(=O)[C@@H](NC(=O)[C@@H]2CCCN2C(=O)[C@H](CCCCN)NC(=O)[C@@H](N)CCCCN)C(C)C)[C@@H](C)CC)[C@@H](C)CC)C(=O)N[C@@H](CC(N)=O)C(=O)N[C@@H](CCCNC(=N)N)C(=O)N[C@@H](CCN)C(=O)N[C@@H]([C@@H](C)O)C(=O)N[C@H](CCN)C(=O)N[C@@H](CCCCN)C(=O)N1)C(=O)O [Example 66] (HELM PEPTIDE1{K.K.P.V.P.I.I.Y.C.N.R.[Dab].T.[NCC[C@@H](N[*:1])C(=O)[*:2]].K.C.[Dab].R.[Nle]}$PEPTIDE1,PEPTIDE1,9:R3-16:R3$$$V2.0)
[1]
  Klebsiella pneumoniae SSI3010 MIC: 0.125 mg/L
[2]; MCR-1 Af 45
  Escherichia coli MCR-1 Af 45 MIC: 0.0625 mg/L
[3]
  Escherichia coli ATCC 25922 MIC: 0.03125 mg/L
[4]
  Hemolysis at 0.2 g/L: 0%

## CC[C@H](C)[C@H](NC(=O)[C@@H]1C[C@@H](O)CN1C(=O)[C@@H](NC(=O)[C@@H]1C[C@@H](O)CN1C(=O)[C@H](CCCCN)NC(=O)[C@@H](N)CCCCN)C(C)C)C(=O)N[C@H](C(=O)N[C@@H](Cc1ccc(O)cc1)C(=O)N[C@@H]1C(=O)N[C@@H](CC(N)=O)C(=O)N[C@@H](CCCNC(=N)N)C(=O)N[C@@H](CCN)C(=O)N[C@@H]([C@@H](C)O)C(=O)N[C@H](CCN)C(=O)N[C@@H](CCCCN)C(=O)N[C@H](C(=O)N[C@@H](CCN)C(=O)N[C@@H](CCCNC(=N)N)C(=O)N[C@@H](Cc2ccc(O)cc2)C(=O)O)CSSC1(C)C)[C@@H](C)O [Example 120, Lys-Lys-Hyp-Val-Hyp-Ile-Thr-Tyr-Pen-Asn-Arg-Dab-Thr-^DDab-Lys-Cys-Dab-Arg-Tyr] (HELM PEPTIDE1{K.K.[Hyp].V.[Hyp].I.T.Y.[Pen].N.R.[Dab].T.[NCC[C@@H](N[*:1])C(=O)[*:2]].K.C.[Dab].R.Y}$PEPTIDE1,PEPTIDE1,9:R3-16:R3$$$V2.0)
[1]
  Klebsiella pneumoniae SSI3010 MIC: 0.125 mg/L
[2]; MCR-1 Af 45
  Escherichia coli MCR-1 Af 45 MIC: 0.125 mg/L
[3]
  Escherichia coli ATCC 25922 MIC: 0.0625 mg/L
[4]
  Hemolysis at 0.2 g/L: 0%

## CC[C@H](C)[C@H](NC(=O)[C@@H](NC(=O)[C@@H]1CCCN1C(=O)[C@@H](NC(=O)[C@@H]1CCCN1C(=O)[C@H](CCCCN)NC(=O)CNCCN)C(C)C)[C@@H](C)CC)C(=O)N[C@@H](Cc1ccc(O)cc1)C(=O)N[C@H]1CSSC(C)(C)[C@@H](C(=O)N[C@@H](CCN)C(=O)N[C@@H](CCCNC(=N)N)C(=O)N[C@@H](Cc2ccc(O)cc2)C(=O)O)NC(=O)[C@H](CCCCN)NC(=O)[C@@H](CCN)NC(=O)[C@H]([C@@H](C)O)NC(=O)[C@H](CCN)NC(=O)[C@H](CCCNC(=N)N)NC(=O)[C@H](CC(N)=O)NC1=O [Example 113] (HELM PEPTIDE1{[NCCNCC(=O)[*:2]].K.P.V.P.I.I.Y.C.N.R.[Dab].T.[NCC[C@@H](N[*:1])C(=O)[*:2]].K.[Pen].[Dab].R.Y}$PEPTIDE1,PEPTIDE1,9:R3-16:R3$$$V2.0)
[1]
  Klebsiella pneumoniae SSI3010 MIC: 0.125 mg/L
[2]; MCR-1 Af 45
  Escherichia coli MCR-1 Af 45 MIC: 0.125 mg/L
[3]
  Escherichia coli ATCC 25922 MIC: 0.0625 mg/L
[4]
  Hemolysis at 0.2 g/L: 0%

## CC[C@H](C)[C@H](NC(=O)[C@@H]1C[C@@H](O)CN1C(=O)[C@@H](N)C(C)C)C(=O)N[C@@H](CN)C(=O)N[C@@H](Cc1ccc(O)cc1)C(=O)N[C@@H]1C(=O)N[C@@H](CC(N)=O)C(=O)N[C@@H](CCCNC(=N)N)C(=O)N[C@@H](CCN)C(=O)N[C@@H]([C@@H](C)O)C(=O)N[C@H](CCN)C(=O)N[C@@H](CCCCN)C(=O)N[C@H](C(=O)N[C@@H](CCN)C(=O)N[C@@H](CCCNC(=N)N)C(=O)N[C@@H](Cc2ccc(O)cc2)C(=O)O)CSSC1(C)C [Example 183] (HELM PEPTIDE1{V.[Hyp].I.[NC[C@H](N[*:1])C(=O)[*:2]].Y.[Pen].N.R.[Dab].T.[NCC[C@@H](N[*:1])C(=O)[*:2]].K.C.[Dab].R.Y}$PEPTIDE1,PEPTIDE1,6:R3-13:R3$$$V2.0)
[1]
  Klebsiella pneumoniae SSI3010 MIC: 0.5 mg/L
[2]; [5]
  Escherichia coli MCR-1 Af 45 MIC: 0.125 mg/L
[3]
  Escherichia coli ATCC 25922 MIC: 0.25 mg/L
[4]
  Hemolysis at 0.2 g/L: 0%

## CCCC[C@H](NC(=O)[C@H](CCCNC(=N)N)NC(=O)[C@H](CCC(N)=O)NC(=O)[C@@H]1CSSC(C)(C)[C@H](NC(=O)[C@H](Cc2ccc(O)cc2)NC(=O)[C@@H](NC(=O)[C@@H](NC(=O)[C@@H]2C[C@@H](N)CN2C(=O)[C@@H](NC(=O)CN(CCN)CCN)C(C)C)[C@@H](C)CC)[C@@H](C)CC)C(=O)N[C@@H](CC(N)=O)C(=O)N[C@@H](CCCNC(=N)N)C(=O)N[C@@H](CCN)C(=O)N[C@@H]([C@@H](C)O)C(=O)N[C@H](CCN)C(=O)N[C@@H](CCCCN)C(=O)N1)C(=O)O [Example 40, Bis(2aminoethyl)Gly-Val-Pro((4R)NH2)-Ile-Ile-Tyr-Pen-Asn-Arg-Dab-Thr-DDab-Lys-Cys-Gln-Arg-Nle] (X3-V[Pro(4R-NH2)]IIY[Pen]NR[Dab]T[dDab]KCQR[Nle]-OH; disulfide 6-13)
[1]
  Klebsiella pneumoniae SSI3010 MIC: 0.25 mg/L
[2]; MCR-1 Af 45
  Escherichia coli MCR-1 Af 45 MIC: 0.0625 mg/L
[3]
  Escherichia coli ATCC 25922 MIC: 0.125 mg/L
[4]
  Hemolysis at 0.2 g/L: 0%

## CC[C@H](C)[C@H](NC(=O)[C@@H](NC(=O)[C@@H]1CCCN1C(=O)[C@@H](NC(=O)[C@@H]1CCCN1C(=O)[C@H](CCCCN)NC(=O)[C@@H](N)CCCCN)C(C)C)[C@@H](C)CC)C(=O)N[C@@H](Cc1ccc(O)cc1)C(=O)N[C@H]1CSSC[C@@H](C(=O)N[C@@H](CCN)C(=O)N[C@@H](CCCNC(=N)N)C(=O)N[C@@H](CC(C)(C)C)C(=O)O)NC(=O)[C@H](CCCCN)NC(=O)[C@@H](CCN)NC(=O)[C@H]([C@@H](C)O)NC(=O)[C@H](CCN)NC(=O)[C@H](CCCNC(=N)N)NC(=O)[C@H](CC(N)=O)NC1=O [Example 83] (HELM PEPTIDE1{K.K.P.V.P.I.I.Y.C.N.R.[Dab].T.[NCC[C@@H](N[*:1])C(=O)[*:2]].K.C.[Dab].R.[CC(C)(C)C[C@H](N[*:1])C(=O)O]}$PEPTIDE1,PEPTIDE1,9:R3-16:R3$$$V2.0)
[1]
  Klebsiella pneumoniae SSI3010 MIC: 0.25 mg/L
[2]; MCR-1 Af 45
  Escherichia coli MCR-1 Af 45 MIC: 0.0625 mg/L
[3]
  Escherichia coli ATCC 25922 MIC: 0.0625 mg/L
[4]
  Hemolysis at 0.2 g/L: 0%

## CC[C@H](C)[C@H](NC(=O)[C@@H]1C[C@@H](O)CN1C(=O)[C@@H](N)C(C)C)C(=O)N[C@H](C(=O)N[C@@H](Cc1ccc(O)cc1)C(=O)N[C@@H]1C(=O)N[C@@H](CCCCN)C(=O)N[C@@H](CCCNC(=N)N)C(=O)N[C@@H](CCN)C(=O)N[C@@H]([C@@H](C)O)C(=O)N[C@H](CCN)C(=O)N[C@@H](CCCCN)C(=O)N[C@H](C(=O)N[C@@H](CCN)C(=O)N[C@@H](CCCNC(=N)N)C(=O)N[C@@H](Cc2ccc(O)cc2)C(=O)O)CSSC1(C)C)[C@@H](C)O [Example 166] (HELM PEPTIDE1{V.[Hyp].I.T.Y.[Pen].K.R.[Dab].T.[NCC[C@@H](N[*:1])C(=O)[*:2]].K.C.[Dab].R.Y}$PEPTIDE1,PEPTIDE1,6:R3-13:R3$$$V2.0)
[1]
  Klebsiella pneumoniae SSI3010 MIC: 0.5 mg/L
[2]; [5]
  Escherichia coli MCR-1 Af 45 MIC: 0.125 mg/L
[3]
  Escherichia coli ATCC 25922 MIC: 0.25 mg/L
[4]
  Hemolysis at 0.2 g/L: 0%

## CC[C@H](C)[C@H](NC(=O)[C@@H]1C[C@@H](O)CN1C(=O)[C@@H](N)C(C)C)C(=O)N[C@H](C(=O)N[C@@H](Cc1ccc(O)cc1)C(=O)N[C@@H]1C(=O)N[C@@H](CC(N)=O)C(=O)N[C@@H](CCCNC(=N)N)C(=O)N[C@@H](CCCNC(=N)N)C(=O)N[C@@H]([C@@H](C)O)C(=O)N[C@H](CCN)C(=O)N[C@@H](CCCCN)C(=O)N[C@H](C(=O)N[C@@H](CCN)C(=O)N[C@@H](CCCNC(=N)N)C(=O)N[C@@H](Cc2ccc(O)cc2)C(=O)O)CSSC1(C)C)[C@@H](C)O [Example 168] (HELM PEPTIDE1{V.[Hyp].I.T.Y.[Pen].N.R.R.T.[NCC[C@@H](N[*:1])C(=O)[*:2]].K.C.[Dab].R.Y}$PEPTIDE1,PEPTIDE1,6:R3-13:R3$$$V2.0)
[1]
  Klebsiella pneumoniae SSI3010 MIC: 0.25 mg/L
[2]; [5]
  Escherichia coli MCR-1 Af 45 MIC: 0.5 mg/L
[3]
  Escherichia coli ATCC 25922 MIC: 0.125 mg/L
[4]
  Hemolysis at 0.2 g/L: 0%
